Reference: PMC12250170, “Synthesis of Novel Podophyllotoxin–Benzothiazole Congeners and Their Biological Evaluation as Anticancer Agents” (International Journal of Molecular Sciences, 2025)
Read-outs that look alike come from different tables or passages of the source.

Assays:
[1] = test system: B16F10 (murine melanoma) cells; test: In vitro cytotoxicity, PrestoBlue assay, B16F10; type: cell-based; conditions: read-out: IC50 ± SD, B16F10
Description: (§1) The synthesized compounds were tested and evaluated for their cytotoxicity using an in vitro cytotoxicity assay. We studied five cancer cell lines and one non-cancerous cell line. The cells were purchased from the American Type Culture Collection (ATCC), United States, including HeLa (cervical), LoVo (colorectal), MCF-7 (breast), SKOV3 (ovarian), B16F10 (murine melanoma), and HaCaT (human keratinocyte). Dulbecco’s modified Eagle’s medium (containing 10% FBS) was used to culture HeLa, MCF-7, B16F10, and HaCaT cells, while RPMI 1640 medium (containing 10% FBS) was used for SKOV3 and LoVo cells. The cells were cultured in 25 cm^2 culture flasks (Corning, Corning, NY, USA) in a humidified atmosphere of 5% CO2 at 37 °C and passaged every three days with standard Trypsin-EDTA solution (Gibco, Thermo Fisher Scientific, Waltham, MA, USA). All compounds were initially prepared as stock solutions at a concentration of 10 mM (in DMSO). Serial dilutions were performed in the indicated medium to achieve the required concentration gradient of compounds (20 µM, 10 µM, 5 µM, 2.5 µM, 1.25 µM, 0.625 µM, 0.312 µM). The maximum percentage of DMSO used in the compound solutions was 0.1%, based on the procedure previously described by our group.
(§2) The PrestoBlue assay was performed according to the method previously reported by Strus et al.. The cells (LoVo and B16F10) were seeded in the indicated medium in a 96-well culture plate (Nest Biotechnology) at a density of 1 × 10^4 cells per well (100 µL) and incubated at 37 °C in a 5% CO2 atmosphere. After 24 h of incubation, 100 µL aliquots of the compounds in medium were added to each well, and the cells were further incubated for 48 h. After 48 h, the old medium was removed, and 100 µL of fresh medium was added. Then, 10 µL of PrestoBlue solution (Thermo Fisher Scientific, Waltham, MA, USA) was added to each well and incubated for 60 min. The fluorescence intensity was measured with excitation at 544 nm and emission at 615 nm using a Fluorstar microplate reader (BMG Labtech, Ortenberg, Germany). The results were expressed as a percentage of the intensity relative to that of control cells (non-treated cells).
(§3) Data analysis was carried out using GraphPad Prism 5.0.3. Calculations were performed using MS-Excel version 2021. The cytotoxic effect was expressed as the relative viability of treated cells (percentage growth control) and was calculated as follows: % relative viability = Ae−Ab/Ac−Ab×100% , where Ae is experimental absorbance/fluorescence intensity, Ac is the absorbance/ fluorescence intensity of growth control (only cells with medium), and Ab is the absorbance/fluorescence intensity of a blank (only medium). The IC50 values were obtained by using the sigmoidal dose–response function in GraphPad Prism. The results were expressed as mean ± standard deviation (SD).

[2] = test system: HeLa (cervix cancer) cells; test: In vitro cytotoxicity, crystal violet assay, HeLa; type: cell-based, human
Description: as §1
(§4) This assay was performed in reference to the method already described. In brief, the cell lines (HeLa, MCF-7, and SKOV-3) were seeded in the indicated medium in a 96-well culture plate (Nest Biotechnology, Wuxi, China) at a density of 1 × 10^4 cells per well (100 µL) in quadruplicates and then incubated at 37 °C in a 5% CO2 atmosphere. After 24 h of incubation, 100 µL aliquots of the compounds in medium at increasing concentrations were added to each well, and the cells were further incubated for 48 h. After the incubation period, the cells were washed with PBS twice, and then with 70% ethanol, followed by staining with 0.05% crystal violet solution in water (ChemPur, Piekary Slaskie, Poland) for 20 min. The excess crystal violet was washed out with distilled water several times. The stained cells then solubilized in 1% Triton™ X-100 Surfact-Amps (POCH SA, Gliwice, Poland) or 10% PBS. The absorbance of each well was measured using Fluostar plate reader at […].
as §3

[3] = test system: LoVo (colorectal cancer) cells; test: In vitro cytotoxicity, PrestoBlue assay, LoVo; type: cell-based, human; conditions: 48 h, read-out: IC50 ± SD, LoVo
Description: as §1, §2, §3

[4] = test system: MCF-7 (breast cancer) cells; test: In vitro cytotoxicity, crystal violet assay, MCF-7; type: cell-based, human
Description: as §1, §4, §3

[5] = test system: SKOV-3 (ovarian cancer) cells; test: In vitro cytotoxicity, crystal violet assay, SKOV-3; type: cell-based, human
Description: as §1, §4, §3

[6] = test system: HaCaT (human keratinocyte) cells; test: In vitro cytotoxicity, PrestoBlue assay, HaCaT (non-tumorigenic); type: cell-based; conditions: 48 h, read-out: IC50 ± SD, HaCaT
[7] = test system: cancer cell lines (MCF-7, SKOV-3, B16F10, LOVO, and HeLa) and HaCaT; test: In vitro cytotoxicity assay, results summarised over the cell line panel; type: cell-based; conditions: for Cytotoxicity in words: all tested cell lines
Description: The cytotoxicity properties of semi-synthesized compounds 7–15 was evaluated against five types of cancer cell lines including, human: HeLa (cervix cancer), LoVo (colorectal cancer), MCF-7 (breast cancer), SKOV-3 (ovarian cancer), and murine: B16F10 (malignant melanoma). Thus, various human tumor cell lines representing major types of malignant cancers were included in the study protocol. Non-tumorigenic HaCaT cells were used as a representative model of normal (non-cancerous) cells. The crystal violet assay and PrestoBlue assay were used to evaluate the cytotoxic/cytostatic effect. We also included the cytotoxicity data of podophyllotoxin and etoposide as reference values.
as §1, §4, §2
Data analysis was carried out using GraphPad Prism 5.0.3. Calculations were performed using MS-Excel version 2021. […]

HeLa cells = test: Cell cycle analysis by flow cytometry (propidium iodide); type: cell-based, human; conditions: concentration and time not given
Description: To determine the possible mechanisms of compounds 7 and 11 in inhibiting the proliferation of cancer cells, cell cycle analysis was performed with the flow cytometry method, as shown in Figure 3. Compound 7 was previously reported to inhibit proliferation of HaCaT cells via cell cycle arrest in G2/M [18]. As a reference, HeLa cells were treated with the indicated concentrations of compounds 7 and 11 for 24 h and 48 h, and the cell cycle phases distribution of treated cells was determined with the propidium iodide (PI) method, as previously described. The effects of novel podophyllotoxin derivatives on cell cycle phase distribution were evaluated in cells exposed to these compounds for 24 h or 48 h. Three compounds were compared: podophyllotoxin 1, KL-3 derivative 7, and its analog lacking the ester group 11.
For cell cycle analysis, HeLa cells were treated for 24 or 48 h with compounds 7 and 11 at concentrations of 5 µM and 10 µM. After the incubation period, the cells were fixed in a freezing medium (ice-cold 70% ethanol solution in PBS) and stored at −20 °C. The cell suspension was then centrifuged, washed with PBS, and resuspended in PBS containing 200 µg of DNase-free RNase A (Sigma) for 20 min at room temperature. Propidium iodide (Sigma) was added to a final concentration of 5 µg/mL, and the cells were stained for at least 2 h at 4 °C. The analysis was performed using a FACSCalibur flow cytometer (Becton Dickinson, San Diego, CA, USA) and analyzed with CellQuest software, v.3.3.

[8] = Homo sapiens; HeLa, crystal violet assay, 48 h; read-out: IC50 ± SD, HeLa
[9] = Homo sapiens, MCF7; MCF-7, crystal violet assay, 48 h; read-out: IC50 ± SD, MCF-7
[10] = Homo sapiens, SK-OV-3; SKOV-3, crystal violet assay, 48 h; read-out: IC50 ± SD, SKOV-3
[11] = Homo sapiens, HeLa, 48 h, HeLa, crystal violet assay, 48 h; read-out: IC50 ± SD, HeLa
[12] = Homo sapiens, MCF7, 48 h, MCF-7, crystal violet assay, read-out: IC50 ± SD, MCF-7
[13] = Homo sapiens, SK-OV-3, 48 h, SKOV-3, crystal violet assay, read-out: IC50 ± SD, SKOV-3
[14] = HeLa, crystal violet assay, 48 h; read-out: IC50 ± SD, HeLa
[15] = MCF-7, crystal violet assay, 48 h; read-out: IC50 ± SD, MCF-7
[16] = SKOV-3, crystal violet assay, 48 h; read-out: IC50 ± SD, SKOV-3

Compound | IC50 ([1]; Mus musculus, B16-F10, 48 h) [µM] | IC50 [2, 8] [nM] | IC50 ([3]; Homo sapiens) [µM] | IC50 [4, 9] [nM] | IC50 [5, 10] [µM] | IC50 ([6]; Homo sapiens) [µM] | Cytotoxicity in words [7] | IC50 [2, 11] [nM] | Selectivity Index (SI) ([2]; SI = IC50HaCaT/IC50HeLa) | IC50 [4, 12] [nM] | IC50 [5, 13] [µM] | other results
COc1cc([C@@H]2c3cc4c(cc3C=C(c3nc5ccccc5s3)[C@@H]2CO)OCO4)cc(OC)c1OC [Compound 13] | > 20 | > 20000 | > 20 | > 20000 | > 20 | > 20 | no effect | – | – | – | – | –
COc1cc([C@@H]2c3cc4c(cc3[C@@H](O[C@@H]3O[C@@H]5CO[C@@H](C)O[C@H]5[C@H](O)[C@H]3O)[C@H]3COC(=O)[C@H]23)OCO4)cc(OC)c1O [Compound 2, etoposide, reference compound] | 6.68 ± 2.32 | – | 2.48 ± 0.47 | – | – | 1.32 ± 0.16 | – | 5730 ± 1480 | 0.23 | 310 ± 17 | 3.15 ± 0.38 | –
COC(=O)C1C(c2nc3ccccc3s2)=Cc2cc3c(cc2C1c1cc(OC)c(OC)c(OC)c1)OCO3 (stereo not drawn) [Compound 10] | – | – | – | – | – | – | no cytotoxicity | – | – | – | – | IC50 ([1]; 48 h): > 20 µM; IC50 [2, 14]: > 20000 nM; IC50 [3]: > 20 µM; IC50 [4, 15]: > 20000 nM; IC50 [5, 16]: > 20 µM; IC50 [6]: > 20 µM
COC(=O)[C@H]1C(c2nc3ccccc3s2)=Cc2cc3c(cc2[C@H]1c1cc(OC)c(O)c(OC)c1)OCO3 [Compound 15] | 3.76 ± 0.49 | 2490 ± 250 | 10.9 ± 0.95 | 3440 ± 810 | 3.73 ± 0.75 | 7.59 ± 0.76 | – | – | 3.05 | – | – | IC50 ([7]; read-out: IC50, range over all the cell lines tested, except for LoVo cells): 2490 to 3760 nM
COC(=O)[C@H]1C(c2nc3cc(C(F)(F)F)ccc3s2)=Cc2cc3c(cc2[C@H]1c1cc(OC)c(OC)c(OC)c1)OCO3 [Compound 8] | > 20 | – | > 20 | – | – | > 20 | inactive | > 20000 | – | > 20000 | > 20 | –
COC(=O)C1C(c2nc3ccccc3s2)=Cc2cc3c(cc2C1c1cc(OC)c(OC)c(OC)c1)OCO3 (stereo not drawn) [Compound 7] | – | – | – | – | – | – | – | – | 1.26 | – | – | IC50 ([1]; 48 h): 1.78 ± 0.55 µM; IC50 [2, 14]: 680 ± 50 nM; IC50 [3]: 0.83 ± 0.08 µM; IC50 [4, 15]: 590 ± 50 nM; IC50 [5, 16]: 1.1 ± 0.13 µM; IC50 [6]: 0.86 ± 0.05 µM; Cells arrested in the G2/M phase (HeLa cells): approximately 90%; IC50 ([7]; MCF-7, SKOV-3, B16F10, LOVO, HeLa, read-out: IC50, range over all tested cancer cell lines): 680 to 2880 nM
COC(=O)c1c(-c2nc3ccccc3s2)cc2cc3c(cc2c1-c1cc(OC)c(OC)c(OC)c1)OCO3 [Compound 12] | > 20 | – | > 20 | – | – | > 20 | no effect | > 20000 | – | > 20000 | > 20 | –
COC(=O)[C@H]1C(c2nc3ccccc3s2)=Cc2cc(O)c(O)cc2[C@H]1c1cc(OC)c(O)c(OC)c1 [Compound 14] | > 20 | – | 11.7 ± 1.02 | – | – | 13.1 ± 1.75 | – | > 20000 | <1 | 11900 ± 1750 | 15.3 ± 1.31 | –
COc1cc([C@@H]2c3cc4c(cc3[C@H](O)[C@H]3COC(=O)[C@H]23)OCO4)cc(OC)c1OC [Compound 1, Podophyllotoxin] | 0.092 ± 0.05 | 8.9 ± 0.3 | 0.033 ± 0.0077 | 3.9 ± 0.5 | 0.017 ± 0.0028 | 0.0046 ± 0.0006 | – | – | 0.52 | – | – | Cells arrested in the G2/M phase (HeLa cells): approximately 90%
COC(=O)C1C(c2nc3cc(Cl)ccc3s2)=Cc2cc3c(cc2C1c1cc(OC)c(OC)c(OC)c1)OCO3 (stereo not drawn) [Compound 9] | > 20 | 1810 ± 130 | 11.1 ± 2.55 | 2020 ± 110 | 10.4 ± 0.73 | 13.2 ± 2.89 | – | – | 7.31 | – | – | IC50 ([7]; read-out: IC50, range over HeLa and MCF-7): 1810 to 2020 nM
